From patent publication US8470810B2, “Heterocyclic compounds suitable for treating disorders that respond to modulation of the dopamine D3 receptor” (Abbott GmbH & Co. KG, priority 2004, dated 2013)

What was measured:
[1] = molecular target: T1, human dopamine D2L receptors (long isoform) (Homo sapiens, UniProt P14416); experiment: Dopamine D2L receptor binding, displacement of [125I] iodospiperone; settings: membranes of HEK-293 cells stably expressing human D2L; 0.01 nM [125I] iodospiperone; 25° C., 60 minutes; read-out: Ki(D2)*
T1 construct: expressed in transfected cells
T1 sequence (P14416 whole entry, canonical isoform): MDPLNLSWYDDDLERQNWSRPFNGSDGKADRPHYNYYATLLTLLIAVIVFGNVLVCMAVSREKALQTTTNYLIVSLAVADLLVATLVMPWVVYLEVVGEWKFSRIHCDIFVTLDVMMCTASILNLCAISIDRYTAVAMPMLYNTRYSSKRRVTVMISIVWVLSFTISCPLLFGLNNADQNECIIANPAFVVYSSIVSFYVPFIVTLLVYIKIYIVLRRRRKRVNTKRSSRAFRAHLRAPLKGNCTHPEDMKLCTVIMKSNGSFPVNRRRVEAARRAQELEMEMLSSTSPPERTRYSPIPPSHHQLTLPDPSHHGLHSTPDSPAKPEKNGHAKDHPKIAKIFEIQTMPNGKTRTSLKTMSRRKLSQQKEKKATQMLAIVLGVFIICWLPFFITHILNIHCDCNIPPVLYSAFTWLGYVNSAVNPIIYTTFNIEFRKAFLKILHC
Summary of the method: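 Displacement of [125I]iodospiperone from human D2L receptors, triplicates, in 50 mM Tris pH 7.4 with 120 mM NaCl, 5 mM KCl, 2 mM CaCl2, 2 mM MgCl2, 0.1% BSA. Incubated 60 min at 25 °C, then filtered and counted by scintillation. Ki came from iterative nonlinear regression of inhibition curves.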

[2] = molecular target: T2, human dopamine D3 receptors (Homo sapiens, UniProt P35462); experiment: Dopamine D3 receptor binding, displacement of [125I]-iodosulpride; settings: for Ki: membranes of HEK-293 cells stably expressing human D3, 0.1 nM [125I]-iodosulpride, 25° C., 60 minutes; for Ki(D2)*/Ki(D3)*: selectivity ratio of the receptor binding constants D2 over D3
T2 construct: expressed in transfected cells
T2 sequence (P35462 whole entry): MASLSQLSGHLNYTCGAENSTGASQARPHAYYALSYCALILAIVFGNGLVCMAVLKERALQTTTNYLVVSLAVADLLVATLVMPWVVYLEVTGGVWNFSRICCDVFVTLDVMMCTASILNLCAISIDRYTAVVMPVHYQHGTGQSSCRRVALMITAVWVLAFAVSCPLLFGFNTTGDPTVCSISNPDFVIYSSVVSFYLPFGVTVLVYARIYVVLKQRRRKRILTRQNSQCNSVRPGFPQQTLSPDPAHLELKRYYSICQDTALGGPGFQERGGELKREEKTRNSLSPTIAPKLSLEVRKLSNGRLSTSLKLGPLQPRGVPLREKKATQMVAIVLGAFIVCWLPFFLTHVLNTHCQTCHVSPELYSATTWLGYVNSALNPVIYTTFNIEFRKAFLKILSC
Summary of the method: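 Displacement of [125I]-iodosulpride at human D3 receptors in pH 7.4 Tris buffer with NaCl, KCl, CaCl2, MgCl2, 0.1% BSA, 10 μM quinolone and 0.1% ascorbic acid, 60 min at 25 °C, in triplicate. Bound label collected by filtration and counted; Ki from nonlinear regression of inhibition curves.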

SMILES | Ki [1] | Ki [2] | Ki(D2)*/Ki(D3)* [2]
CCCN1CC[C@@H](c2ccc(NS(=O)(=O)c3ccc(C4CC4(F)F)cc3)cc2)C1 (stereo partly drawn) [Example 41, 4-(2,2-Difluorocyclopropyl)-N-[4-((S)-1-propyl-pyrrolidin-3-yl)-phenyl]-benzenesulfonamide] | 13.5 nM | 0.44 nM | 30
CCCN1CC[C@@H](c2ccc(NS(=O)(=O)c3ccc(N4CCC(F)(F)C4)cc3)cc2)C1 [Example 127, 4-(3,3-Difluoro-pyrrolidin-1-yl)-N-[4-((S)-1-propyl-pyrrolidin-3-yl)-phenyl]-benzenesulfonamide] | 64.7 nM | 0.6 nM | 112
CCCN1CC[C@@H](c2ccc(NS(=O)(=O)c3ccc(OC(C)C)cc3)cc2)C1.Cl [Example 23, 4-Isopropoxy-N-[4-((S)-1-propyl-pyrrolidin-3-yl)-phenyl]-benzenesulfonamide hydrochloride] | 46.6 nM | 1.07 nM | 44
O=S(=O)(Nc1ccc([C@@H]2CCN(CCCF)C2)cc1)c1ccc(OC(F)(F)F)cc1 [Example 114, N-{4-[(S)-1-(3-Fluoro-propyl)-pyrrolidin-3-yl]-phenyl}-4-trifluoromethoxy-benzenesulfonamide] | 464 nM | 4.2 nM | 111
CCCN1CC[C@@H](c2ccc(NS(=O)(=O)c3ccc(C(C)=O)cc3)cc2)C1 [Example 26, 4-Acetyl-N-[4-((S)-1-propyl-pyrrolidin-3-yl)-phenyl]-benzenesulfonamide] | 1280 nM | 28.1 nM | 46
CCCN1CC[C@@H](c2ccc(NS(=O)(=O)c3ccc(-c4ccno4)s3)cc2)C1 [Example 80, 5-Isoxazol-5-yl-thiophene-2-sulfonic acid [4-((S)-1-propyl-pyrrolidin-3-yl)-phenyl]-amide] | 1100 nM | 37.6 nM | 29
CCCN1CCC[C@@H](c2ccc(NS(=O)(=O)c3ccc(OC(F)(F)F)cc3)cc2)C1 [Example 133, N-[4-((S)-1-Propyl-piperidin-3-yl)-phenyl]-4-trifluoromethoxy-benzenesulfonamide] | 193 nM | 7.3 nM | 26
CCCN1CC[C@@H](c2ccc(NS(=O)(=O)c3ccc(F)c(F)c3)cc2)C1.Cl [Example 126, 3,4-Difluoro-N-[4-((S)-1-propyl-pyrrolidin-3-yl)-phenyl]-benzenesulfonamide hydrochloride] | 1020 nM | 34 nM | 30
CCCN1CC[C@@H](c2ccc(NS(=O)(=O)c3ccc(N4CCCC4=O)cc3)cc2)C1 [Example 72, 4-(2-Oxo-pyrrolidin-1-yl)-N-[4-((S)-1-propyl-pyrrolidin-3-yl)-Phenyl]-benzenesulfonamide] | 473 nM | 35.1 nM | 13
CCCN1CC[C@@H](c2ccc(NS(=O)(=O)c3cc4ccccc4o3)cc2)C1 [Example 79, Benzofuran-2-sulfonic acid [4-((S)-1-propyl-pyrrolidin-3-yl)-phenyl]-amide] | 1110 nM | 13.5 nM | 82
CCCN1CC[C@@H](c2ccc(NS(=O)(=O)c3ccc4c(c3)CCO4)cc2)C1 [Example 14, 2,3-Dihydro-benzofuran-5-sulfonic acid [4-((S)-1-propyl-pyrrolidin-3-yl)-phenyl]-amide] | 123 nM | 3.4 nM | 37
CCCN1CC[C@@H](c2ccc(NS(=O)(=O)c3ccc(CC(C)C)cc3)cc2)C1.Cl [Example 35, 4-Isobutyl-N-[4-((S)-1-propyl-pyrrolidin-3-yl)-phenyl]-benzenesulfonamide hydrochloride] | 7.4 nM | 0.3 nM | 24
CCCN1CC[C@@H](c2ccc(NS(=O)(=O)c3ccc(-c4csnn4)cc3)cc2)C1 [Example 65, N-[4-((S)-1-Propyl-pyrrolidin-3-yl)-phenyl]-4-[1,2,3]thiadiazol-4-yl-benzenesulfonamide] | 197 nM | 6.79 nM | 29
CCCN1CC[C@@H](c2ccc(NS(=O)(=O)c3ccc(N4CCC4)cc3)cc2)C1 [Example 75, 4-Azetidin-1-yl-N-[4-((S)-1-propyl-pyrrolidin-3-yl)-phenyl]-benzenesulfonamide] | 12.2 nM | 0.63 nM | 19
CCCN1CC(c2ccc(NS(=O)(=O)c3ccc([C@H](C)CF)cc3)cc2)C1 [Example 60, 4-((S)-2-Fluoro-1-methyl-ethyl)-N-[4-(1-propyl-azetidin-3-yl)-phenyl]-benzenesulfonamide] | 7780 nM | 7.63 nM | 1019
CC(C)c1ccc(S(=O)(=O)Nc2ccc(C3CCNC3)c(F)c2)cc1 (stereo not drawn) [Example 129, N-(3-Fluoro-4-pyrrolidin-3-yl-phenyl)-4-isopropyl-benzenesulfonamide] | 106 nM | 3.6 nM | 30
CCCN1CC(c2ccc(NS(=O)(=O)c3ccc(C(C)C)cc3)cn2)C1 [Example 46, 4-Isopropyl-N-[6-(1-propyl-azetidin-3-yl)-pyridin-3-yl]-benzenesulfonamide] | 1830 nM | 49 nM | 37
CC(C)c1ccc(S(=O)(=O)Nc2ccc(C3CCN(Cc4ccccc4)C3)c(F)c2)cc1 (stereo not drawn) [Example 128, N-[4-(1-Benzyl-pyrrolidin-3-yl)-3-fluoro-phenyl]-4-isopropyl-benzenesulfonamide] | 12.9 nM | 2.7 nM | 5
CCCN1CC[C@@H](c2ccc(NS(=O)(=O)c3ccc(OCc4ccccc4)cc3)cc2)C1 [Example 121, 4-Benzyloxy-N-[4-((S)-1-propyl-pyrrolidin-3-yl)-phenyl]-benzenesulfonamide] | 163 nM | 3.7 nM | 44
CCCN1CC(c2ccc(NS(=O)(=O)c3ccc([C@@H](C)CF)cc3)cc2)C1 [Example 59, 4-((R)-2-Fluoro-1-methyl-ethyl)-N-[4-(1-propyl-azetidin-3-yl)-phenyl]-benzenesulfonamide] | 1520 nM | 6.41 nM | 238
CCCN1CC[C@@H](c2ccc(NS(=O)(=O)c3ccc(-c4cnco4)s3)cc2)C1 [Example 82, 5-Oxazol-5-yl-thiophene-2-sulfonic acid [4-((S)-1-propyl-pyrrolidin-3-yl)-phenyl]-amide] | 437 nM | 5.59 nM | 78
CCCN1CC[C@@H](c2ccc(NS(=O)(=O)c3ccc(C4CC4)cc3)cc2)C1 [Example 27, 4-Cyclopropyl-N-[4-((S)-1-propyl-pyrrolidin-3-yl)-phenyl]-benzenesulfonamide] | 7.1 nM | 0.23 nM | 30
CCCN1CCC(c2ccc(NS(=O)(=O)c3ccc(C(C)C)cc3)cn2)C1 (stereo not drawn) [Example 31, N-[6-(1-propyl-pyrrolidin-3-yl)-pyridin-3-yl]-4-isopropyl-benzene-sulfonamide] | 257 nM | 10.8 nM | 24
CCCN1CC[C@@H](c2ccc(NS(=O)(=O)c3ccc(C(C)CC)cc3)cc2)C1.Cl (stereo partly drawn) [Example 33, 4-sec-Butyl-N-[4-((S)-1-propyl-pyrrolidin-3-yl)-phenyl]-benzenesulfonamide hydrochloride] | 5.47 nM | 0.17 nM | 33
